Measurements as given in patent US20260232767A1, “INTERLEUKIN-23 RECEPTOR ANTAGONIST PEPTIDES FOR USE IN THE TREATMENT OF PSORIASIS” (Janssen Pharmaceutica NV, priority 2023, published 2026).

How the values were obtained:
[1] = test system: subjects with moderate-to-severe plaque psoriasis; test: DLQI, Example 1; type: in vivo, human; details: each dose group vs placebo; Week 16
Description: The Dermatological Life Quality Index (DLQI) is a dermatology-specific health-related quality of life (HRQoL) instrument designed to assess the impact of the disease on a participant's HRQoL. It is a 10-item questionnaire that assesses HRQoL over the past week and in addition to evaluating overall HRQoL, can be used to assess 6 different aspects that may affect quality of life: symptoms and feelings, daily activities, leisure, work or school performance, personal relationships, and treatment. The total score ranges from 0 to 30 with a higher score indicating greater impact on quality of life (QoL).
Efficacy, PK, immunogenicity, biomarker, pharmacogenomic, and safety criteria were measured during the treatment. Subjects were provided with an electronic device to enter patient-reported outcome (PRO) data at each study visit. All visit-specific PRO assessments were conducted/completed before any tests, procedures or other clinical assessments, with the exception of the urine pregnancy test and urinalysis, to prevent influencing subject perceptions.

[2] = test system: subjects with moderate-to-severe plaque psoriasis; test: Elevated liver function tests; type: in vivo, human; details: through Week 56
[3] = 25 mg BID, at least 1 post-baseline value
[4] = 25 mg BID, baseline ≤ULN and at least 1 post-baseline value
[5] = 25 mg QD, at least 1 post-baseline value
[6] = 25 mg QD, baseline ≤ULN and at least 1 post-baseline value
[7] = 50 mg QD, at least 1 post-baseline value
[8] = 50 mg QD, baseline ≤ULN and at least 1 post-baseline value
[9] = 100 mg BID, at least 1 post-baseline value
[10] = 100 mg BID, baseline ≤ULN and at least 1 post-baseline value
[11] = 100 mg QD, at least 1 post-baseline value
[12] = 100 mg QD, baseline ≤ULN and at least 1 post-baseline value
[13] = Combined, at least 1 post-baseline value
[14] = Combined, baseline ≤ULN and at least 1 post-baseline value
[15] = Placebo → 100 mg QD, at least 1 post-baseline value
[16] = Placebo → 100 mg QD, baseline ≤ULN and at least 1 post-baseline value

SMILES: CC(=O)NCCCC[C@@H]1NC(=O)[C@H](Cc2c[nH]c3c(C)cccc23)NC(=O)[C@H]([C@@H](C)O)NC(=O)[C@H](CC(N)=O)NC(=O)[C@@H](NC(C)=O)C(C)(C)SSC(C)(C)[C@@H](C(=O)N[C@@H](Cc2ccc(OCCN)cc2)C(=O)N[C@@H](Cc2ccc3ccccc3c2)C(=O)NC2(C(=O)N[C@@H](CCC(=O)O)C(=O)N[C@@H](CC(N)=O)C(=O)N[C@@H](Cc3cccnc3)C(=O)N(C)CC(N)=O)CCOCC2)NC1=O [IL-23 receptor antagonist peptide, Ac-[Pen]*-N-T-[W(7-Me)]-[Lys(Ac)]-[Pen]*-Phe[4-(2-aminoethoxy)]-[2-Nal]-[THP]-E-N-[3-Pal]-Sarc-NH2 (*[Pen]-[Pen]* formdisulfidebond)]
- Proportion achieving DLQI score of 0 or 1 [1]: significantly higher
- Subjects with Total Bilirubin >2 × ULN and either AST or ALT ≥3 × ULN at the same timepoint ([2]; 25 mg BID): 0
- Subjects with ALT ≥5 × ULN [2, 3]: 0
- Subjects with ALT ≥10 × ULN [2, 3]: 0
- Subjects with ALT ≥20 × ULN [2, 3]: 0
- Subjects with AST ≥5 × ULN [2, 3]: 0
- Subjects with AST ≥10 × ULN [2, 3]: 0
- Subjects with AST ≥20 × ULN [2, 3]: 0
- Subjects with ALT ≥5 × ULN [2, 4]: 0
- Subjects with ALT ≥10 × ULN [2, 4]: 0
- Subjects with ALT ≥20 × ULN [2, 4]: 0
- Subjects with AST ≥5 × ULN [2, 4]: 0
- Subjects with AST ≥10 × ULN [2, 4]: 0
- Subjects with AST ≥20 × ULN [2, 4]: 0
- Subjects with Total Bilirubin >2 × ULN and either AST or ALT ≥3 × ULN at the same timepoint ([2]; 25 mg QD): 0
- Subjects with ALT >1 × ULN [2, 5]: 7
- Subjects with ALT ≥10 × ULN [2, 5]: 0
- Subjects with ALT ≥20 × ULN [2, 5]: 0
- Subjects with AST ≥5 × ULN [2, 5]: 0
- Subjects with AST ≥10 × ULN [2, 5]: 0
- Subjects with AST ≥20 × ULN [2, 5]: 0
- Subjects with ALT ≥10 × ULN [2, 6]: 0
- Subjects with ALT ≥20 × ULN [2, 6]: 0
- Subjects with AST ≥5 × ULN [2, 6]: 0
- Subjects with AST ≥10 × ULN [2, 6]: 0
- Subjects with AST ≥20 × ULN [2, 6]: 0
- Subjects with Total Bilirubin >2 × ULN and either AST or ALT ≥3 × ULN at the same timepoint ([2]; 50 mg QD): 0
- Subjects with ALT ≥3 × ULN [2, 7]: 0
- Subjects with ALT ≥5 × ULN [2, 7]: 0
- Subjects with ALT ≥10 × ULN [2, 7]: 0
- Subjects with ALT ≥20 × ULN [2, 7]: 0
- Subjects with AST ≥3 × ULN [2, 7]: 0
- Subjects with AST ≥5 × ULN [2, 7]: 0
- Subjects with AST ≥10 × ULN [2, 7]: 0
- Subjects with AST ≥20 × ULN [2, 7]: 0
- Subjects with ALT ≥3 × ULN [2, 8]: 0
- Subjects with ALT ≥5 × ULN [2, 8]: 0
- Subjects with ALT ≥10 × ULN [2, 8]: 0
- Subjects with ALT ≥20 × ULN [2, 8]: 0
- Subjects with AST ≥3 × ULN [2, 8]: 0
- Subjects with AST ≥5 × ULN [2, 8]: 0
- Subjects with AST ≥10 × ULN [2, 8]: 0
- Subjects with AST ≥20 × ULN [2, 8]: 0
- Subjects with Total Bilirubin >2 × ULN and either AST or ALT ≥3 × ULN at the same timepoint ([2]; 100 mg BID): 0
- Subjects with ALT ≥3 × ULN [2, 9]: 5
- Subjects with ALT ≥5 × ULN [2, 9]: 0
- Subjects with ALT ≥10 × ULN [2, 9]: 0
- Subjects with ALT ≥20 × ULN [2, 9]: 0
- Subjects with AST ≥10 × ULN [2, 9]: 0
- Subjects with AST ≥20 × ULN [2, 9]: 0
- Subjects with ALT ≥5 × ULN [2, 10]: 0
- Subjects with ALT ≥10 × ULN [2, 10]: 0
- Subjects with ALT ≥20 × ULN [2, 10]: 0
- Subjects with AST >1 × ULN [2, 10]: 4
- Subjects with AST ≥10 × ULN [2, 10]: 0
- Subjects with AST ≥20 × ULN [2, 10]: 0
- Subjects with Total Bilirubin >2 × ULN and either AST or ALT ≥3 × ULN at the same timepoint ([2]; 100 mg QD): 0
- Subjects with ALT ≥5 × ULN [2, 11]: 0
- Subjects with ALT ≥10 × ULN [2, 11]: 0
- Subjects with ALT ≥20 × ULN [2, 11]: 0
- Subjects with AST >1 × ULN [2, 11]: 9
- Subjects with AST ≥5 × ULN [2, 11]: 0
- Subjects with AST ≥10 × ULN [2, 11]: 0
- Subjects with AST ≥20 × ULN [2, 11]: 0
- Subjects with ALT ≥5 × ULN [2, 12]: 0
- Subjects with ALT ≥10 × ULN [2, 12]: 0
- Subjects with ALT ≥20 × ULN [2, 12]: 0
- Subjects with AST ≥5 × ULN [2, 12]: 0
- Subjects with AST ≥10 × ULN [2, 12]: 0
- Subjects with AST ≥20 × ULN [2, 12]: 0
- Subjects with Total Bilirubin >2 × ULN and either AST or ALT ≥3 × ULN at the same timepoint ([2]; Combined): 0
- Subjects with ALT ≥10 × ULN [2, 13]: 0
- Subjects with ALT ≥20 × ULN [2, 13]: 0
- Subjects with AST ≥10 × ULN [2, 13]: 0
- Subjects with AST ≥20 × ULN [2, 13]: 0
- Subjects with ALT ≥10 × ULN [2, 14]: 0
- Subjects with ALT ≥20 × ULN [2, 14]: 0
- Subjects with AST ≥10 × ULN [2, 14]: 0
- Subjects with AST ≥20 × ULN [2, 14]: 0
- Subjects with Total Bilirubin >2 × ULN and either AST or ALT ≥3 × ULN at the same timepoint ([2]; Placebo → 100 mg QD): 0
- Subjects with ALT ≥5 × ULN [2, 15]: 0
- Subjects with ALT ≥10 × ULN [2, 15]: 0
- Subjects with ALT ≥20 × ULN [2, 15]: 0
- Subjects with AST ≥10 × ULN [2, 15]: 0
- Subjects with AST ≥20 × ULN [2, 15]: 0
- Subjects with ALT ≥5 × ULN [2, 16]: 0
- Subjects with ALT ≥10 × ULN [2, 16]: 0
- Subjects with ALT ≥20 × ULN [2, 16]: 0
- Subjects with AST ≥10 × ULN [2, 16]: 0
- Subjects with AST ≥20 × ULN [2, 16]: 0
